In patent publication US5700780A, “Antiviral peptide derivatives having a 2-oxoalkyl amino acid side chain” (Boehringer Ingelheim (Canada), Ltd., priority 1989, dated 1997):
Where a SMILES comes first, the peptide text is derived from it.

target: HSV-1 ribonucleotide reductase (Human herpesvirus 1, UniProt P08543); assay: biochemical
Source text: Inhibition of Herpes Simplex Virus (HSV, type 1) Ribonucleotide Reductase
HSV-1 ribonucleotide reductase (partially purified) was obtained from quiescent BHK-21/C13 cells infected with strain F HSV-1 virus at 10 plaque forming units/cell as described by E. A. Cohen et al., J. Gen. Virol., 66, 733 (1985).
The procedure described by P. Gaudreau et al., J. Biol, Chem., 262, 12413 (1987), was employed. […] The number of units of the enzyme preparation used in each assay was constant, based on the specific activity of the enzyme preparation.

Chain of HSV-1 ribonucleotide reductase (P08543 whole entry): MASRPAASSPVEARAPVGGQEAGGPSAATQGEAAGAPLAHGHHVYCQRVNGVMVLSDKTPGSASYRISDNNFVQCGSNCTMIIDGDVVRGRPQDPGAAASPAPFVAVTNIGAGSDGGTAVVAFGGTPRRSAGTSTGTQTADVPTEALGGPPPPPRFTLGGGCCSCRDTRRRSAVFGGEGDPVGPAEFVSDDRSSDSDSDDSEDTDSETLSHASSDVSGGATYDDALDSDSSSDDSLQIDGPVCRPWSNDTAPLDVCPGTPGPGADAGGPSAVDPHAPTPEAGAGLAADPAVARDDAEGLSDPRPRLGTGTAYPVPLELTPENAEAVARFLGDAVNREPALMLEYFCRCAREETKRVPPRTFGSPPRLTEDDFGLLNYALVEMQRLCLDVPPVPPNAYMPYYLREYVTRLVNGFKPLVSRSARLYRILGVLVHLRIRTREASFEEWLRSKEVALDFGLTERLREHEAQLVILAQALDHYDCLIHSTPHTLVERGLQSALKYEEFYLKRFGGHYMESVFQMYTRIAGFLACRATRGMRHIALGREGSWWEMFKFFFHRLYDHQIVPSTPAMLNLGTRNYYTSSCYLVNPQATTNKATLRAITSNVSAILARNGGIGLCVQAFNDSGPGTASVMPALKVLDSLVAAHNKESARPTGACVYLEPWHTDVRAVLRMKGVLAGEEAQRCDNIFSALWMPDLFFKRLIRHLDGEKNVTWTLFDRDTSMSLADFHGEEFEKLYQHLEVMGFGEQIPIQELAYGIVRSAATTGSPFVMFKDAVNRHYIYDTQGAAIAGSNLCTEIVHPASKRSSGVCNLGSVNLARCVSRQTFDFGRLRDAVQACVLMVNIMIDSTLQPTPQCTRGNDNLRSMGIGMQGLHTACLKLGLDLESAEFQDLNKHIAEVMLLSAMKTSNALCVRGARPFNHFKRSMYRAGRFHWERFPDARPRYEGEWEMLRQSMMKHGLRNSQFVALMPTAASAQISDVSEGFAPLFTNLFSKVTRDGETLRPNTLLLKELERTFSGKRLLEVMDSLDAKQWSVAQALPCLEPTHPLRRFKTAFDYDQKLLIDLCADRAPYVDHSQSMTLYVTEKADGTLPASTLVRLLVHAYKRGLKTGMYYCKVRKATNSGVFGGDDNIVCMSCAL

SMILES | IC50 [µM]
CCCCCCCC(=O)C[C@H](NC(=O)[C@@H](NC(=O)C(CC)CC)[C@@H](C)CC)C(=O)N[C@@H](CC(=O)O)C(=O)N[C@@H](CC(C)C)C(=O)O [2-Ethylbutanoyl-Ile--NHCH(2-oxononyl)-CO--Asp--Leu--OH] | 24
CCCCCCCCCCCC(=O)C[C@H](NC(=O)[C@@H](NC(=O)C(CC)CC)[C@@H](C)CC)C(=O)N[C@@H](CC(=O)O)C(=O)N[C@@H](CC(C)C)C(=O)O [2-Ethylbutanoyl-Ile--NHCH(2-oxotridecyl)-CO--Asp--Leu--OH] | 8.5
CCC(CC)C(=O)N[C@H](C(=O)N[C@@H](CC(=O)C1CCCC1)C(=O)N[C@@H](CC(=O)O)C(=O)NCCC(C)(C)C)C(C)(C)C [2-Ethylbutanoyl-Tbg--NHCH(2-cyclopentyl-2-oxoethyl)-CO--Asp--NHCH2 CH2 C(CH3)3] | 23
CCCCCC(=O)C[C@H](NC(=O)[C@@H](NC(=O)C(CC)CC)C(C)(C)C)C(=O)N[C@@H](CC(=O)O)C(=O)N[C@@H](CC(C)C)C(=O)O [2-Ethylbutanoyl-Tbg--NHCH(2-oxoheptyl)-CO--Asp--Leu--OH] | 7.5
CCCCCCCC(=O)C[C@H](NC(=O)[C@@H](NC(=O)C(CC)CC)C(C)(C)C)C(=O)N[C@@H](CC(=O)O)C(=O)N[C@@H](CC(C)C)C(=O)O [2-Ethylbutanoyl-Tbg--NHCH(2-oxononyl)-CO--Asp--Leu--OH] | 4.5
CCCCCCCC(=O)C[C@H](NC(=O)[C@@H](NC(=O)C(CC)CC)C(C)(C)C)C(=O)N[C@H](C(=O)N[C@@H](CC(C)C)C(=O)O)C(C)(C)C(=O)O [2-Ethylbutanoyl-Tbg--NHCH(2-oxononyl)-CO--NHCH[C(CH3)2 COOH]--CO--Leu--OH] | 1.2
CC[C@H](C)[C@H](NC(=O)[C@H](C(C)C)N(C)C(=O)CCc1ccccc1)C(=O)N[C@@H](CC(=O)C1CCCC1)C(=O)N[C@@H](CC(=O)O)C(=O)N[C@@H](CC(C)C)C(=O)O [PhCH2 CH2 CO--N--Me--Val--Ile--NHCH(2-cyclopentyl-2-oxoethyl)-CO--Asp--Leu--OH] (HELM PEPTIDE1{[O=C(CCc1ccccc1)[*:2]].[meV].I.[O=C(C[C@H](N[*:1])C(=O)[*:2])C1CCCC1].D.L}$$$$V2.0) | 0.18
CCCCCCCC(=O)C[C@H](NC(=O)[C@@H](NC(=O)[C@H](C(C)C)N(C)C(=O)CCc1ccccc1)[C@@H](C)CC)C(=O)N[C@@H](CC(=O)O)C(=O)N[C@@H](CC(C)C)C(=O)O [PhCH2 CH2 CO--N--Me--Val--Ile--NHCH(2-oxononyl)-CO--Asp--Leu--OH] (HELM PEPTIDE1{[O=C(CCc1ccccc1)[*:2]].[meV].I.[CCCCCCCC(=O)C[C@H](N[*:1])C(=O)[*:2]].D.L}$$$$V2.0) | 0.42
CC[C@H](C)[C@H](NC(=O)[C@H](C(C)C)N(C)C(=O)CCc1ccccc1)C(=O)N[C@@H](CC(C)=O)C(=O)N[C@@H](CC(=O)O)C(=O)N[C@@H](CC(C)C)C(=O)O [PhCH2 CH2 CO--N--Me--Val--Ile--NHCH(2-oxopropyl)-CO--Asp--Leu--OH] (HELM PEPTIDE1{[O=C(CCc1ccccc1)[*:2]].[meV].I.[CC(=O)C[C@H](N[*:1])C(=O)[*:2]].D.L}$$$$V2.0) | 1.3
CCCCCCCCCCCC(=O)C[C@H](NC(=O)[C@@H](NC(=O)[C@H](C(C)C)N(C)C(=O)CCc1ccccc1)[C@@H](C)CC)C(=O)N[C@@H](CC(=O)O)C(=O)N[C@@H](CC(C)C)C(N)=O [PhCH2 CH2 CO--N--Me--Val--Ile--NHCH(2-oxotridecyl)-CO--Asp--Leu--NH2] (HELM PEPTIDE1{[O=C(CCc1ccccc1)[*:2]].[meV].I.[CCCCCCCCCCCC(=O)C[C@H](N[*:1])C(=O)[*:2]].D.L.[am]}$$$$V2.0) | 6.3
